Data on three compounds can be found in US6767533B1, “Use of a substance binding with the peripheral benzodiazepin receptor for treating skin stress” (Sanofi-Synthelabo, priority 1998, dated 2004).

In test [1] the target is T1, peripheral benzodiazepine receptor (PBR) (Homo sapiens, UniProt P30536).
T1 construct: the peripheral receptor borne by the keratinocytes; host or cells: A-431 human epidermoid carcinoma keratinocyte line
In words: Binding studies on keratinocyte line A-431 by displacement of [3H]-PK11195.

A further test has as its system human keratinocytes. Nature of the test: Protection of keratinocytes against UVB-induced cell impairment (apoptosis ELISA). As to conditions: UVB 250 J/m^2 for 16 hours, ligand concentration range between 10 nM and 10 μm. Format: cell-based. The protocol:
The anti-apoptotic activity of the active agents was measured on human keratinocytes and on fibroblasts (ATCC) which were inoculated in 35 mm Petri dishes (5×10^5 cells/well) in DMEM (Dubelco's Mode Eagle Medium) supplemented with 10% fetal calf serum and left to proliferate to the point of confluence. This culture medium is then drawn off, the cells are rinsed and 0.1% fetal calf serum is added in the presence of a saline solution. Increasing concentrations of the substance to be studied are added. Twenty four hours later, the apoptosis is measured with an ELISA (enzyme-linked immunosorbent assay) assay kit.
Keratinocytes were subjected to ultraviolet radiation of type B (UVB) at a dose of 250 J/m^2 for 16 hours (J. Invest. Dermatol. 1995, 104: 922-927). In the presence of the PBR ligand Ro 5-4864, it was shown that the cell impairment processes induced by the irradiation are prevented in a ligand concentration range of between 10 nM and 10 μm.

Like-named read-outs stand apart in the source and are kept apart here.

T1 sequence (P30536 whole entry): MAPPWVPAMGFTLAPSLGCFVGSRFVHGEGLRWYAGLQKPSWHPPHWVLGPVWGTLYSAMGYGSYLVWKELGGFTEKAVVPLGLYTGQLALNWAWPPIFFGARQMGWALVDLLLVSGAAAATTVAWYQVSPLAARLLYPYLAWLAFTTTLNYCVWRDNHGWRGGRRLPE

As to `CN1C(=O)CN=C(c2ccc(Cl)cc2)c2cc(Cl)ccc21` [Ro 5-4864, chlorodiazepam], the IC50 in test [1] (A-431 keratinocyte line, read-out: IC50, displacement of the reference peripheral ligand PK 11195) is around 25 nM. Moreover, in the test on human keratinocytes, the “cell impairment processes induced by UVB irradiation” value is recorded as “prevented”. On to `O=C1CN=C(c2ccccc2Cl)c2cc([N+](=O)[O-])ccc2N1` [clonazepam], for which, in test [1] (A-431 keratinocyte line, at 3 200 nM), the “displacement of the reference peripheral ligand PK 11195” value was “inactive”. In test [1], `CN1C(=O)CN=C(c2ccccc2)c2cc(Cl)ccc21` [diazepam] gave an IC50 of around 100 nM.
